# Reference: US4985447A, “Certain benzoquinones, naphthoquinones and derivatives thereof which exhibit thromboxane A2 synthetase inhibition or receptor antagonism and the like” (Takeda Chemical Industries, Ltd., priority 1986, dated 1991)
# Values joined by “and” are separate entries in the source; they are usually repeats but may differ in a detail not shown here. Equal values may be shown once.
# Legend:
# [1] = Proteinuria improving effect in rat with adriamycin-induced nephrosis; format: in vivo, rat (Sprague-Dawley)
# Experimental: Procedure: The experiment was carried out with Sprague-Dawley rat (male, 5 weeks old) according to the method of T. Bertani et al.[(Laboratory Invest.4, 16, (1982)]. Adriamycin was given intravenously at the dose of 7.5 mg/kg and two weeks later urine was collected for 24 hours after water was loaded orally at 10 ml/kg. Total urinary protein and albumin excreted in the urine were determined; rats of which total urinary protein was 20 mg/100g/24 hours or more were chosen for the experiment. The control group received water (vehicle) alone at 10 ml/kg/day, and the Compound No.18 group received the Compound at the dose of 50 mg/kg/day (10 ml/kg, water) once a day for 2 weeks. After 1 week or 2 weeks of treatment with the drug, 24 hour-urine was collected to determine total urinary protein and albumin. Two weeks later blood was taken from the thoracic aorta of the rat under pentobarbital anesthesia (50 mg/kg, intraperitoneal injection) to determine plasma cholesterol level.
# [2] = Improving effect on glomerulonephritis in rat; format: in vivo, rat (Sprague-Dawley); details: for total urinary protein / urinary albumin: 50 mg/kg/day, p.o.
# Experimental: Procedure: Nephritic rat was prepared according to the method of Matsunaga et al.[Folia pharmacol. japon. 78, 491,(1981)]using Sprague-Dawley rat (male, 5 weeks old). That is, the rat was immunized preliminarily by subcutaneous injection of a mixture of 3 mg of rabbit serum albumin (RSA) and an equal volume of Freund's complete adjuvant, and from two weeks after that RSA was given intravenously at the dose of 1 mg/rat three times a week for 8 weeks. Then 24 hour-urine was collected to determine total urinary protein and urinary albumin. Rats of which total urinary protein was 20 mg/100g/24hr or more were chosen for the experiment. The control group received water (vehicle) alone at 10 ml/kg/day, and the Compound No.18 group received the Compound at the dose of 50 mg/kg/day (10 ml/kg, water) once a day for 2 weeks. After 1 week and 2 weeks of treatment, 24 hour-urine was collected to determine total urinary protein and urinary albumin.
# [3] = Toxicological study in the rat; format: in vivo, rat (male Wistar); parameters: key to Spleen: Widening of red pulp / Spleen: Congestion (dilatation of sinus) / Spleen: Extramedullary hematopoiesis / Spleen: Atrophy of white pulp / Liver: Parenchymal cell alteration / Kidney: Dilatation of pelvis / Heart: Cardiac cell alteration / Lung: Alteration / Bone marrow: Proliferation of erythroblast: -: negative; +: mild; ++: moderate; +++: severe; details: for Adrenals weight / Body weight (B.V.) / Brains weight / Gonads weight / Heart weight / Hypophy. weight / Kidney weight / Liver weight / Lung weight / Spleen weight / Thymus weight / Thyroid weight / Bone marrow: Proliferation of erythroblast / Heart: Cardiac cell alteration / Kidney: Dilatation of pelvis / Liver: Parenchymal cell alteration / Lung: Alteration / Spleen: Atrophy of white pulp / Spleen: Congestion (dilatation of sinus) / Spleen: Extramedullary hematopoiesis / Spleen: Widening of red pulp: 2 weeks; for Adrenals weight / Body weight (B.V.) / Brains weight / Gonads weight / Heart weight / Hypophy. weight / Kidney weight / Liver weight / Lung weight / Spleen weight / Thymus weight / Thyroid weight: mean; for A/G ratio / AI.P / Albumin / Calcium / GOT / GPK / GPT / Glucose / Greatinine / LAP / LDH / Total bilirubin / Total cholesterol / Total protein / Urea nitrogen: mean ± S.D.
# Experimental: Procedure: Five weeks old, male Wistar rats were used. The rats were given the Compound 18 orally once a day for 14 days at doses of 100 and 300 mg/kg/10 ml of water as a suspension with 5% gum arabic. Control rats were given vehicle (10 ml/kg of water) alone. After fasting a night following the final dose of a 2 week treatment, the rats were anesthetized with ethyl ether and the blood was collected into a heparinized syringe from the abdominal aorta and the plasma was separated for the examination of blood chemistry. Blood parameters such as total protein, glucose, calcium, urea nitrogen, creatinine, total cholesterol, total bilirubin, alkaline phosphatase (ALP), leucine aminopeptidase (LAP), lactate dehydrogenase (LDH), glutamic oxaloacetic transaminase (GOT), glutamic pyruvic transaminase (GPT), creatine phosphokinase (CPK), albumin and A/G ratio were analysed by use of auto-analyzer (Hitachi 716). The organs such as liver, kidney, heart, lung, spleen, adrenal glands, thymus, testris, brain and hypophysis were excised and weighed. Some organs (liver, kidney, heart, lung, spleen) were fixed in 10% neutral formalin solution for histological examinations. Bone marrow was fixed as well without weighing. These fixed organs were stained with Hematoxyline-Eosin for histological examinations.
# [4] = 50 mg/kg/day, p.o., 1 week after
# [5] = 50 mg/kg/day, p.o., 2 weeks after
# [6] = 50 mg/kg/day, p.o., before treatment
# [7] = 1 week after, *p<0.05 against pretreatment
# [8] = 2 weeks after, *p<0.05 against pretreatment
# [9] = 100 mg/kg/day, single rats No. 7-10
# [10] = 300 mg/kg/day, single rats No. 11-15
structure (smiles),measurement,setting,value
CC1=C(C)C(=O)C(Cc2cccnc2)=C(C)C1=O [Compound No. 18],effect on adriamycin-induced nephrosis (in words),[1]; 50 mg/kg/day for 2 weeks,improves adriamycin-induced nephrosis
same,total urinary protein versus pretreatment value (in words),[1]; 50 mg/kg/day for 2 weeks,neither total urinary protein nor urinary albumin differed from the respective pretreatment values
same,urinary albumin versus pretreatment value (in words),[1]; 50 mg/kg/day for 2 weeks,neither total urinary protein nor urinary albumin differed from the respective pretreatment values
same,total urinary protein,[1]; [4],55 ± 17 mg/100 g/24 hr
same,urinary albumin,[1]; [4],25 ± 10
same,total urinary protein,[1]; [5],59 ± 9 mg/100 g/24 hr
same,urinary albumin,[1]; [5],31 ± 7
same,serum cholesterol,"[1]; 50 mg/kg/day, p.o., 2 weeks after, #p<0.05 against control",49 ± 4 mg/dL
same,total urinary protein,[1]; [6],76 ± 28 mg/100 g/24 hr
same,urinary albumin,[1]; [6],28 ± 14
same,serum cholesterol level (in words),"[1]; after 2 weeks, 50 mg/kg/day",decreased remarkably
same,effect on nephritis (in words),[2]; 50 mg/kg/day for 2 weeks,improves nephritis
same,total urinary protein compared with control group (in words),[2]; 50 mg/kg/day for 2 weeks,decreased total urinary protein
same,urinary albumin compared with control group (in words),[2]; 50 mg/kg/day for 2 weeks,decreased total urinary protein and urinary albumin
same,total urinary protein,[2]; [7],37 ± 8 mg/100 g/24 hr
same,urinary albumin,[2]; [7],17 ± 5
same,total urinary protein,[2]; [8],48 ± 16 mg/100 g/24 hr
same,urinary albumin,[2]; [8],24 + 12
same,total urinary protein,[2]; before treatment,75 ± 28 mg/100 g/24 hr
same,urinary albumin,[2]; before treatment,45 ± 21
same,Adrenals weight,[3]; 100 mg/kg orally,47.7 mg
same,Body weight (B.V.),[3]; 100 mg/kg orally,170.3 g
same,Brains weight,[3]; 100 mg/kg orally,1.747 g
same,Gonads weight,[3]; 100 mg/kg orally,1.906 g
same,Heart weight,[3]; 100 mg/kg orally,0.709 g
same,Hypophy. weight,[3]; 100 mg/kg orally,8.3 mg
same,Kidney weight,[3]; 100 mg/kg orally,1.579 g
same,Liver weight,[3]; 100 mg/kg orally,6.347 g
same,Lung weight,[3]; 100 mg/kg orally,0.872 g
same,Spleen weight,[3]; 100 mg/kg orally,0.673 g
same,Thymus weight,[3]; 100 mg/kg orally,0.45 g
same,Thyroid weight,[3]; 100 mg/kg orally,11.4 mg
same,Bone marrow: Proliferation of erythroblast,[3]; [9],-
same,Heart: Cardiac cell alteration,[3]; [9],-
same,Kidney: Dilatation of pelvis,[3]; [9],- (2×) and ++ and +
same,Liver: Parenchymal cell alteration,[3]; [9],-
same,Lung: Alteration,[3]; [9],-
same,Spleen: Atrophy of white pulp,[3]; [9],-
same,Spleen: Congestion (dilatation of sinus),[3]; [9],-
same,Spleen: Extramedullary hematopoiesis,[3]; [9],+
same,Spleen: Widening of red pulp,[3]; [9],-
same,A/G ratio,[3]; 100 mg/kg/day,1.65 ± 0.05
same,AI.P,[3]; 100 mg/kg/day,194 ± 32 U/I
same,Albumin,[3]; 100 mg/kg/day,3.43 ± 0.05 g %
same,Calcium,[3]; 100 mg/kg/day,9.84 ± 0.41 mg %
same,GOT,[3]; 100 mg/kg/day,57 ± 6 U/I
same,GPK,[3]; 100 mg/kg/day,44 ± 5 U/I
same,GPT,[3]; 100 mg/kg/day,13 ± 1 U/I
same,Glucose,[3]; 100 mg/kg/day,104 ± 11 mg %
same,Greatinine,[3]; 100 mg/kg/day,0.5 ± 0.0 mg %
same,LAP,[3]; 100 mg/kg/day,20 ± 1 U/I
same,LDH,[3]; 100 mg/kg/day,86 ± 22 U/I
same,Total bilirubin,[3]; 100 mg/kg/day,0.27 ± 0.03 mg %
same,Total cholesterol,[3]; 100 mg/kg/day,47 ± 7 mg %
same,Total protein,[3]; 100 mg/kg/day,5.51 ± 0.11 g %
same,Urea nitrogen,[3]; 100 mg/kg/day,15.8 ± 0.7 mg %
same,body weight (in words),[3]; 300 mg/kg,"tended to have a lower body weight, but the change was not significant"
same,splenomegaly (in words),[3]; 300 mg/kg,one of 5 rats showed a mild splenomegaly
same,Adrenals weight,[3]; 300 mg/kg orally,43.0 mg
same,Body weight (B.V.),[3]; 300 mg/kg orally,162.0 g
same,Brains weight,[3]; 300 mg/kg orally,1.714 g
same,Gonads weight,[3]; 300 mg/kg orally,1.873 g
same,Heart weight,[3]; 300 mg/kg orally,0.913 g
same,Hypophy. weight,[3]; 300 mg/kg orally,8.1 mg
same,Kidney weight,[3]; 300 mg/kg orally,1.508 g
same,Liver weight,[3]; 300 mg/kg orally,6.264 g
same,Lung weight,[3]; 300 mg/kg orally,0.929 g
same,Spleen weight,[3]; 300 mg/kg orally,0.703 g
same,Thymus weight,[3]; 300 mg/kg orally,0.447 g
same,Thyroid weight,[3]; 300 mg/kg orally,12.0 mg
same,extramedullary hematopoiesis (in words),"[3]; 300 mg/kg, one of 5 rats",increased extramedullary hematopoiesis
same,Bone marrow: Proliferation of erythroblast,[3]; [10],-
same,Heart: Cardiac cell alteration,[3]; [10],-
same,Kidney: Dilatation of pelvis,[3]; [10],- (4×) and +
same,Liver: Parenchymal cell alteration,[3]; [10],-
same,Lung: Alteration,[3]; [10],-
same,Spleen: Atrophy of white pulp,[3]; [10],- (4×) and +
same,Spleen: Congestion (dilatation of sinus),[3]; [10],-
same,Spleen: Extramedullary hematopoiesis,[3]; [10],+ (4×) and ++
same,Spleen: Widening of red pulp,[3]; [10],- (3×) and + (2×)
same,A/G ratio,[3]; 300 mg/kg/day,1.73
same,AI.P,[3]; 300 mg/kg/day,149 U/I
same,Albumin,[3]; 300 mg/kg/day,3.47 ± 0.13 g %
same,Calcium,[3]; 300 mg/kg/day,9.70 ± 0.18 mg %
same,GOT,[3]; 300 mg/kg/day,64 ± 9 U/I
same,GPK,[3]; 300 mg/kg/day,52 ± 9 U/I
same,GPT,[3]; 300 mg/kg/day,14 ± 1 U/I
same,Glucose,[3]; 300 mg/kg/day,97 ± 11 mg %
same,Greatinine,[3]; 300 mg/kg/day,0.4 ± 0.1 mg %
same,LAP,[3]; 300 mg/kg/day,19 ± 1 U/I
same,LDH,[3]; 300 mg/kg/day,99 ± 18 U/I
same,Total bilirubin,[3]; 300 mg/kg/day,0.28 ± 0.02 mg %
same,Total cholesterol,[3]; 300 mg/kg/day,41 ± 14 mg %
same,Total protein,[3]; 300 mg/kg/day,5.48 ± 0.20 g %
same,Urea nitrogen,[3]; 300 mg/kg/day,14.5 ± 0.6 mg %
same,blood chemistry (in words),[3]; 100 and 300 mg/kg,no changes in the blood chemistry
same,organ weight (in words),[3]; 100 and 300 mg/kg,no significant changes in any organ weight
same,histology of the other organs (in words),[3]; after 2 weeks,The other organs showed no changes
